Eight molecules from patent US8026359B2, “Fungicidal heterocyclic amines” (E.I. du Pont de Nemours and Company, priority 2007, dated 2011) can be followed below.

Assay type in all cases: in vivo
The test system of one experiment is Botrytis cinerea. In words: Test F: tomato Botrytis, preventive spray on tomato seedlings. The settings on record: 200 ppm, 100 = 100% disease control, 0 = no control relative to controls; for pest or weed control at 200 ppm: Botrytis cinerea, 120 h, read-out: Test F disease control rating. In short, it runs like this:
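Preventive run-off spray onto tomato seedlings at 200 ppm (equivalent to 500 g/ha) or 40 ppm. Suspensions: compound predissolved in acetone at 3% of final volume, then taken up in acetone/purified water 50/50 containing 250 ppm Trem® 014 surfactant.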

For another experiment, the system named is Septoria nodorum. In words: Test C: wheat glume blotch, preventive spray on wheat seedlings. The following applies: 200 ppm, 100 = 100% disease control, 0 = no control relative to controls; for pest or weed control at 200 ppm: Parastagonospora nodorum, 216 h, read-out: Test C disease control rating. The method, boiled down: (§1)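 Test plants received run-off sprays of 200 ppm suspension (500 g/ha equivalent) or 40 ppm suspension. These suspensions were made by first dissolving each compound in acetone, then suspending it in an equal acetone/water mix carrying 250 ppm Trem 014.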

Experiment [1] relates to Puccinia recondita f. sp. tritici. In words: Test B: wheat leaf rust, preventive spray on wheat seedlings. The settings on record: 200 ppm, 100 = 100% disease control, 0 = no control relative to controls; for pest or weed control at 200 ppm: Puccinia recondita, 192 h, read-out: Test B disease control rating. The method, boiled down: as §1
Another experiment deals with Septoria tritici. In words: Test D: wheat leaf blotch, preventive spray on wheat seedlings. The settings on record: 200 ppm, 100 = 100% disease control, 0 = no control relative to controls; for pest or weed control at 200 ppm: Zymoseptoria tritici, 504 h, read-out: Test D disease control rating. The method, boiled down:
as §1

The next experiment concerns Alternaria solani. As to the kind of experiment: Test H: tomato early blight, preventive spray on seedlings. The settings on record: 200 ppm, 100 = 100% disease control, 0 = no control relative to controls; for pest or weed control at 200 ppm: Alternaria solani, 168 h, read-out: Test H disease control rating. The text has this: General protocol for preparing test suspensions for Tests A-R: The test compounds were first dissolved in acetone in an amount equal to 3% of the final volume and then suspended at the desired concentration (in ppm) in acetone and purified water (50/50 mix) containing 250 ppm of the surfactant Trem® 014 (polyhydric alcohol esters). The resulting test suspensions were then used in tests A-R. In Tests A-M, compounds were sprayed as a 200 ppm test suspension (equivalent to a rate of 500 g/ha) or as a 40 ppm test suspension to the point of runoff on the test plants. In Tests N-R, compounds were sprayed as a 100 g/ha test suspension (equivalent to a rate of 100 ppm) on the test plants at an application volume of 1000 L/ha. The test suspension was sprayed to the point of run-off on wheat seedlings.

Experiment [2] deals with Colletotrichum orbiculare. As to the kind of experiment: Test I: cucumber Colletotrichum anthracnose, preventive spray on cucumber seedlings. The following applies: 100 = 100% disease control, 0 = no control relative to controls; for pest or weed control at 200 ppm: Colletotrichum orbiculare, 144 h, read-out: Test I disease control rating; for Test I disease control rating: 200 ppm. The method, boiled down:
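Preventive foliar spray to run-off on cucumber seedlings, at 200 ppm (stated as equal to 500 g/ha) or 40 ppm. Test suspensions were made in acetone/water 50/50 containing 250 ppm Trem 014, after first dissolving compound in acetone at 3% of final volume.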

The test system of a further experiment is Fusarium graminearum. As to the kind of experiment: whole plant or invertebrate. The following applies: for pest or weed control at 200 ppm: Fusarium graminearum, in Triticum aestivum, 192 h, read-out: Test E disease control rating; for Test E disease control rating: 200 ppm, 100 = 100% disease control, 0 = no control relative to controls.

Molecules are shown by their SMILES.

As to `Cc1ccc(Nc2cc(-c3ccnc(NC4CCOCC4)n3)ccn2)c(Cl)c1` [Compound 102, 4-[2-[(2-chloro-4-methylphenyl)amino]-4-pyridinyl]-N-(tetrahydro-2H-pyran-4-yl)-2-pyrimidinamine], the pest or weed control at 200 ppm in the experiment on Botrytis cinerea was determined as 83%; in the experiment with Septoria nodorum it was 100%; in experiment [1], 93%; with Septoria tritici, 3%; in the experiment on Alternaria solani, 41%; in experiment [2], 0%. In addition, the pest or weed control at 200 ppm with Fusarium graminearum worked out at 27%.

For the molecule `Clc1ccccc1Nc1cc(-c2ccnc(NC3CCOCC3)n2)ccn1` [Compound 101, 4-[2-[(2-chlorophenyl)amino]-4-pyridinyl]-N-(tetrahydro-2H-pyran-4-yl)-2-pyrimidinamine], the pest or weed control at 200 ppm with Botrytis cinerea is 99%; in the experiment on Septoria nodorum, 100%; in experiment [1], 99%; in the experiment on Septoria tritici it was 53%; with Alternaria solani, 92%; in experiment [2], 97%. Further, the pest or weed control at 200 ppm in the experiment on Fusarium graminearum was determined as 97%.

With `CSCC(C)Nc1nccc(-c2ccnc(Nc3cccc(Cl)c3)c2)n1` (centres unmarked) [Compound 95, 4-[2-[(3-chlorophenyl)amino]-4-pyridinyl]-N-[1-methyl-2-(methylthio)ethyl]-2-pyrimidinamine], the pest or weed control at 200 ppm with Botrytis cinerea stood at 0%; in the experiment on Septoria nodorum it was 94%; in experiment [1], 88%; in the experiment with Septoria tritici it was 77%; in the experiment on Alternaria solani, 0%; in experiment [2], 0%. The pest or weed control at 200 ppm with Fusarium graminearum was 0%.

On to `CC(C)(C)Nc1nccc(-c2ncnc(Nc3cccc(F)c3)n2)n1` [Compound 10], for which the “Test F disease control rating” value in the experiment with Botrytis cinerea came to 0%. The “Test C disease control rating” value in the experiment on Septoria nodorum turned out to be 100%. Moreover, the “Test B disease control rating” value in experiment [1] is reported as 93%. In the experiment with Septoria tritici, the “Test D disease control rating” value was 10%. The “Test H disease control rating” value in the experiment on Alternaria solani amounted to 97%. In addition, the “Test I disease control rating” value in experiment [2] is reported as 99%. In addition, in the experiment with Fusarium graminearum, the “Test E disease control rating” value is recorded as 61%.

As for `Cc1cc(Cl)ccc1Nc1cc(-c2ccnc(NC3CCOCC3)n2)ccn1` [Compound 103, 4-[2-[(4-chloro-2-methylphenyl)amino]-4-pyridinyl]-N-(tetrahydro-2H-pyran-4-yl)-2-pyrimidinamine], the pest or weed control at 200 ppm in the experiment on Botrytis cinerea was determined as 0%; with Septoria nodorum it was 100%; in experiment [1] it was 97%; with Septoria tritici, 1%; in the experiment with Alternaria solani, 99%; in experiment [2] it was 0%. Also, in the experiment on Fusarium graminearum, the pest or weed control at 200 ppm came to 0%.

In the case of `COC[C@H](C)Nc1nccc(-c2ncnc(Nc3ccc(C)cc3)n2)n1` [Compound 20], the “Test F disease control rating” value in the experiment with Botrytis cinerea turned out to be 99%. Also, in the experiment on Septoria nodorum, the “Test C disease control rating” value came out at 100%. Moreover, the “Test B disease control rating” value in experiment [1] was determined as 74%. Besides, the “Test D disease control rating” value in the experiment on Septoria tritici came out at 20%. Moreover, the “Test H disease control rating” value with Alternaria solani came out at 96%. Also, the “Test I disease control rating” value in experiment [2] is listed as 0%. In addition, the “Test E disease control rating” value with Fusarium graminearum was 91%.

With `Cc1cccc(Cl)c1Nc1nccc(-c2ncnc(NC3CCOCC3)n2)n1` [Compound 104, 4-[2-[(2-chloro-6-methylphenyl)amino]-4-pyrimidinyl]-N-(tetrahydro-2H-pyran-4yl)-1,3,5-triazin-2-amine], the pest or weed control at 200 ppm in the experiment on Botrytis cinerea was 0%; in the experiment with Septoria nodorum it was 94%; in experiment [1] it was 99%; in the experiment with Septoria tritici it was 10%; in the experiment on Alternaria solani it was 0%; in experiment [2], 0%. Also, in the experiment on Fusarium graminearum, the pest or weed control at 200 ppm is 0%.

Regarding `COCC(C)(C)Nc1nccc(-c2ncnc(Nc3cccc(F)c3)n2)n1` [Compound 6], the “Test F disease control rating” value with Botrytis cinerea was 85%. Further, the “Test C disease control rating” value in the experiment on Septoria nodorum is 100%. Moreover, the “Test B disease control rating” value in experiment [1] came to 97%. In addition, in the experiment on Septoria tritici, the “Test D disease control rating” value is given as 58%. Moreover, the “Test H disease control rating” value in the experiment with Alternaria solani came to 98%. Also, in experiment [2], the “Test I disease control rating” value amounted to 0%. In addition, the “Test E disease control rating” value with Fusarium graminearum is recorded as 84%.
